Experimental findings from publication doi:10.1101/2022.09.03.506457v1 (biorxiv, 2022) are described below.

The target in this test is T1, MjFH (MjFHαβ), holo, Fe-S reconstituted (Methanocaldococcus jannaschii, UniProt Q58034+Q58690).
T1 sequence (Q58690 1-285): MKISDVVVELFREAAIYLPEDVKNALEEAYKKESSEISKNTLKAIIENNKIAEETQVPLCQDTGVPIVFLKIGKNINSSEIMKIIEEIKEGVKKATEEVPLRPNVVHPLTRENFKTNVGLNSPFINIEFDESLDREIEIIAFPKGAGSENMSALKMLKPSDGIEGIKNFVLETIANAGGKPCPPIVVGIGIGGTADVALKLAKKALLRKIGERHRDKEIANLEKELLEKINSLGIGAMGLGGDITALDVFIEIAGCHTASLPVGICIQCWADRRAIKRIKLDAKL
T1 sequence (Q58034 1-195): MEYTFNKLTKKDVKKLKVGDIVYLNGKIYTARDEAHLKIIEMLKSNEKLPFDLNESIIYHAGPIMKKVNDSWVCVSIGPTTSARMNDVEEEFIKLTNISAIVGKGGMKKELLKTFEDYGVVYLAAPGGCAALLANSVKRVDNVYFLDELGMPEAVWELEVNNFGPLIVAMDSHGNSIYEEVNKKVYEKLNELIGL
Type of test: biochemical. The settings on record: pH 7.2, 50 mM Tris-HCl, 70 °C.

Molecules are shown by their SMILES.

On to `O=C(O)/C=C/C(=O)O` [fumarate], for which the Km is 2790 ± 397 µM.
